# Test results taken from patent US20100160369A1, “S1P1 Agonists and Methods of Making And Using” (EXELIXIS, INC., priority 2008, published 2010).
# pEC50: −log10 of the molar value.
# Molecular target: S1P1 (Homo sapiens, UniProt P21453)
# Experiment: Tango β-arrestin Recruitment Assay in U2OS cells (Assay 2b)
# Type: cell-based
# Set-up: linker with TEV protease (N1a) cleavage site (C)
# Conditions: Tango β-arrestin Recruitment Assay, footnote 1: Relative EC50 was measured, read-out: Assay 2b relative EC50
# From the text: For the Tango™ β-arrestin recruitment assay, the cytoplasmic C-terminus of S1P1 is tethered to the tTA transcriptional activator with a linker that contains a cleavage site for the N1a protease from tobacco etch virus (TEV protease). The C-terminus of the human β-arrestin2 protein is fused to TEV protease. Binding of an agonist recruits the β-arrestin-TEV fusion protein to the receptor resulting in cleavage of the linker and release of tTA to enter the nucleus and subsequently activate a tTA-dependent luciferase reporter gene.
# Alternatively, U2OS cells expressing the reporter gene and S1P1 (Invitrogen) were added to the wells of a 384-well white opaque bottom assay plate (PerkinElmer) at […] per well. The cells were serum starved for 48 h in Freestyle medium (Invitrogen). Test compounds were tested at maximum concentrations of 1 μM for the agonist assay. Compounds were diluted in DMSO (10 concentration points, 3-fold each) and added to the assay plate at a 1% final DMSO concentration. The efficacy control was 1 μM S1P (Avanti). For each compound, there were duplicate assay plates and each assay plate had duplicate wells per concentration point. The plate was incubated overnight at 37° C. The GeneBLAzer β-lactamase assay reagent (Invitrogen) was added and the plates were incubated for an additional 2 h at room temperature. Fluorescence was measured using an EnVision plate reader (PerkinElmer, Waltham, Mass.) at an excitation wavelength of 409 nm and emission wavelengths of 460 nm and 530 nm. The emission intensity at each wavelength was background subtracted against wells containing medium only and the F460 nm/F530 nm ratio determined for each concentration of the test compounds. Percent activity was calculated as [(test compound ratio−DMSO ratio)/(positive control ratio−DMSO ratio)*100], where the positive control and DMSO ratios are from cells incubated with the efficacy control 1 μM S1P and 1% DMSO, respectively. The percent activities were plotted against compound concentration to determine EC50 using XLFit (IDBS).
# Assay 1 is the CNG cAMP Assay as described in Biological Example 1. Assay 2a and 2b are the Tango™ β-arrestin Recruitment Assay in HEK293 and U2OS cells, respectively, as described in Biological Example 2. Assay 3a is the hS1P1R GTPγS Binding Assay as described in Biological Example 3. Assay 3b is the GTP-Eu Binding Assay as described in Biological Example 3. EC50's were measured unless otherwise noted. […] In the table, “nt” means the Compound was not tested and “no” means the compound was tested but had no measurable activity under the assay conditions employed.
# Chain of S1P1 (P21453 whole entry): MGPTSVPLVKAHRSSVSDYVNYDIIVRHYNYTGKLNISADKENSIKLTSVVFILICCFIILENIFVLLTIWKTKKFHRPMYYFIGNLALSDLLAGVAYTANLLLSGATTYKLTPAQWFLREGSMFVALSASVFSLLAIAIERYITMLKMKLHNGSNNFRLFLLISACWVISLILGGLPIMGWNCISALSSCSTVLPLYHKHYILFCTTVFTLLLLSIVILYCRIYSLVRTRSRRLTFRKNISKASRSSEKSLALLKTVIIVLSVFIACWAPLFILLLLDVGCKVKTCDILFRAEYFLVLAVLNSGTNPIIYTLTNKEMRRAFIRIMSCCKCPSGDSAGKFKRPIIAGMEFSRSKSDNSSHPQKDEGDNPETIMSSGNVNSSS
# Chain of S1P1 (P32121 whole entry partner): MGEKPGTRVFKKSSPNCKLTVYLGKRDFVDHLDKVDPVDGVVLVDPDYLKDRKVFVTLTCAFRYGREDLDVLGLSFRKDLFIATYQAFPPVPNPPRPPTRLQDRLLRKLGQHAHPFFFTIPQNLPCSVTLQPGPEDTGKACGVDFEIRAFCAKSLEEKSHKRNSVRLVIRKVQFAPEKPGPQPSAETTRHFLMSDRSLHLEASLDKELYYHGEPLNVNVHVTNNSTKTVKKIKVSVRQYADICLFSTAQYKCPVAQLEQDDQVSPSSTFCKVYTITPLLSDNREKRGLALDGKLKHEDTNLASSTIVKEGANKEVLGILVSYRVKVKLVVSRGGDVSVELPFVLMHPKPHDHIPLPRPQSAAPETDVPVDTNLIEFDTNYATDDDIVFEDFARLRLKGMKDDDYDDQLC
row,pEC50,Compound
1,6.30 to 7.00,"CC(N)COc1cc(Cl)c(-c2nnc(-c3cn4cc(C(F)(F)F)cc(Cl)c4n3)s2)cc1F (stereo not drawn) [Example 298, 1-[(5-chloro-4-{5-[8-chloro-6-(trifluoromethyl)imidazo[1,2-a]pyridin-2-yl]-1,3,4-thiadiazol-2-yl}-2-fluorophenyl)pxy]propan-2-amine]"
2,6.30 to 7.00,"COC(=O)C(C)(O)COc1cc(Cl)c(-c2noc(-c3cn4cc(C(F)(F)F)cc(Cl)c4n3)n2)cc1Cl (stereo not drawn) [Example 319, methyl 3-[(2,5-dichloro-4-{5-[8-chloro-6-(trifluoromethyl)imidazo[1,2-a]pyridin-2-yl]-1,2,4-oxadiazol-3-yl}phenyl)oxy]-2-hydroxy-2-methylpropanoate]"

# Same assay, conditions: Tango β-arrestin Recruitment Assay, read-out: Assay 2b EC50
row,pEC50,Compound
1,≥ 7.00,"O=C(O)CCc1c(F)cc(-c2noc(-c3cn4cc(C(F)(F)F)cc(Cl)c4n3)n2)cc1Cl [Example 296, 3-(2-chloro-4-{5-[8-chloro-6-(trifluoromethyl)imidazo[1,2-a]pyridin-2-yl]-1,2,4-oxadiazol-3-yl}-6-fluorophenyl)propanoic acid]"
2,≥ 7.00,"Cc1cc(CCC(=O)O)c(Cl)cc1-c1nc(-c2cn3cc(I)cc(Cl)c3n2)no1 [Example 297, 3-{2-chloro-4-[3-(8-chloro-6-iodoimidazo[1,2-a]pyridin-2-yl)-1,2,4-oxadiazol-5-yl]-5-methylphenyl}propanoic acid]"
3,6.30 to 7.00,"O=C(O)C1CC1c1cc(Cl)c(-c2nc(-c3cn4cc(C(F)(F)F)cc(Cl)c4n3)no2)cc1Cl (stereo not drawn) [Example 299, 2-(2,5-dichloro-4-{3-[8-chloro-6-(trifluoromethyl)imidazo[1,2-a]pyridin-2-yl]-1,2,4-oxadiazol-5-yl}phenyl)cyclopropanecarboxylic acid]"
4,≥ 7.00,"CC1(C)OC[C@@H](COc2cc(Cl)c(-c3noc(-c4cn5cc(C(F)(F)F)cc(Cl)c5n4)n3)cc2Cl)O1 [Example 304, 8-chloro-2-{3-[2,5-dichloro-4-({[(4R)-2,2-dimethyl-1,3-dioxolan-4-yl]methyl}oxy)phenyl]-1,2,4-oxadiazol-5-yl}-6-(trifluoromethyl)imidazo[1,2-a]pyridine]"
5,≥ 7.00,"CC(=O)COc1cc(Cl)c(-c2noc(-c3cn4cc(C(F)(F)F)cc(Br)c4n3)n2)cc1Cl [Example 305, 1-[(4-{5-[8-bromo-6-(trifluoromethyl)imidazo[1,2-a]pyridin-2-yl]-1,2,4-oxadiazol-3-yl}-2,5-dichlorophenyl)oxy]propan-2-one]"
6,≥ 7.00,"O=C(O)C1CC1c1cc(Cl)c(-c2noc(-c3cn4cc(C(F)(F)F)cc(Br)c4n3)n2)cc1Cl (stereo not drawn) [Example 306, 2-(4-{5-[8-bromo-6-(trifluoromethyl)imidazo[1,2-a]pyridin-2-yl]-1,2,4-oxadiazol-3-yl}-2,5-dichlorophenyl)cyclopropanecarboxylic acid]"
7,≥ 7.00,"OCC(CO)Oc1cc(Cl)c(-c2noc(-c3cn4cc(C(F)(F)F)cc(Cl)c4n3)n2)cc1Cl [Example 307, 2-[(2,5-dichloro-4-{5-[8-chloro-6-(trifluoromethyl)imidazo[1,2-a]pyridin-2-yl]-1,2,4-oxadiazol-3-yl}phenyl)oxy]propane-1,3-diol]"
8,≥ 7.00,"OCCNc1cc(Cl)c(-c2noc(-c3cn4cc(C(F)(F)F)cc(Cl)c4n3)n2)cc1F [Example 308, 2-[(5-chloro-4-{5-[8-chloro-6-(trifluoromethyl)imidazo[1,2-a]pyridin-2-yl]-1,2,4-oxadiazol-3-yl}-2-fluorophenyl)amino]ethanol]"
9,≥ 7.00,"N[C@@H](CO)COc1cc(Cl)c(-c2nnc(-c3cn4cc(C(F)(F)F)ccc4n3)s2)cc1F [Example 309, (2S)-2-amino-3-[(5-chloro-2-fluoro-4-{5-[6-(trifluoromethyl)imidazo[1,2-a]pyridin-2-yl]-1,3,4-thiadiazol-2-yl}phenyl)oxy]propan-1-ol]"
10,≥ 7.00,"COc1ccc2nc(-c3nnc(-c4cc(F)c(OC[C@@H](N)CO)cc4Cl)s3)cn2c1 [Example 310, (2S)-2-amino-3-[(5-chloro-2-fluoro-4-{5-[6-(methyloxy)imidazo[1,2-a]pyridin-2-yl]-1,3,4-thiadiazol-2-yl}phenyl)oxy]propan-1-ol]"
11,≥ 7.00,"OCC(F)(F)COc1cc(Cl)c(-c2noc(-c3cn4cc(C(F)(F)F)cc(Cl)c4n3)n2)cc1Cl [Example 311, 3-[(2,5-dichloro-4-{5-[8-chloro-6-(trifluoromethyl)imidazo[1,2-a]pyridin-2-yl]-1,2,4-oxadiazol-3-yl}phenyl)oxy]-2,2-difluoropropan-1-ol]"
12,≥ 7.00,"CC(O)COc1cc(Cl)c(-c2noc(-c3cn4cc(C(F)(F)F)cc(Br)c4n3)n2)cc1Cl (stereo not drawn) [Example 316, 1-[(4-{5-[8-bromo-6-(trifluoromethyl)imidazo[1,2-a]pyridin-2-yl]-1,2,4-oxadiazol-3-yl}-2,5-dichlorophenyl)oxy]propan-2-ol]"
13,≥ 7.00,"COCC(O)COc1cc(Cl)c(-c2noc(-c3cn4cc(C(F)(F)F)cc(Cl)c4n3)n2)cc1Cl (stereo not drawn) [Example 318, 1-[(2,5-dichloro-4-{5-[8-chloro-6-(trifluoromethyl)imidazo[1,2-a]pyridin-2-yl]-1,2,4-oxadiazol-3-yl}phenyl)oxy]-3-(methyloxy)propan-2-ol]"
14,≥ 7.00,"O=C(O)C1CC1c1cc(Cl)c(-c2nnc(-c3cn4cc(C(F)(F)F)cc(Cl)c4n3)s2)cc1Cl (stereo not drawn) [Example 320, 2-(2,5-dichloro-4-{5-[8-chloro-6-(trifluoromethyl)imidazo[1,2-a]pyridin-2-yl]-1,3,4-thiadiazol-2-yl}phenyl)cyclopropanecarboxylic acid]"
15,≥ 7.00,"CC(O)CNc1cc(Cl)c(-c2noc(-c3cn4cc(C(F)(F)F)cc(Cl)c4n3)n2)cc1Cl (stereo not drawn) [Example 323, 1-[(2,5-dichloro-4-{5-[8-chloro-6-(trifluoromethyl)imidazo[1,2-a]pyridin-2-yl]-1,2,4-oxadiazol-3-yl}phenyl)amino]propan-2-ol]"
16,≥ 7.00,"C[C@@H](COc1cc(Cl)c(-c2noc(-c3cn4cc(C(F)(F)F)cc(Br)c4n3)n2)cc1Cl)OP(=O)(O)O [Example 325, (1S)-2-[(4-{5-[8-bromo-6-(trifluoromethyl)imidazo[1,2-a]pyridin-2-yl]-1,2,4-oxadiazol-3-yl}-2,5-dichlorophenyl)oxy]-1-methylethyl dihydrogen phosphate]"
17,≥ 7.00,"CC(O)(COc1cc(Cl)c(-c2noc(-c3cn4cc(C(F)(F)F)cc(Cl)c4n3)n2)cc1Cl)C(=O)O (stereo not drawn) [Example 327, 3-[(2,5-dichloro-4-{5-[8-chloro-6-(trifluoromethyl)imidazo[1,2-a]pyridin-2-yl]-1,2,4-oxadiazol-3-yl}phenyl)oxy]-2-hydroxy-2-methylpropanoic acid]"
18,≥ 7.00,"C[C@H](COc1cc(Cl)c(-c2noc(-c3cn4cc(C(F)(F)F)cc(Cl)c4n3)n2)cc1Cl)OP(=O)(O)O [Example 328, (1R)-2-[(2,5-dichloro-4-{5-[8-chloro-6-(trifluoromethyl)imidazo[1,2-a]pyridin-2-yl]-1,2,4-oxadiazol-3-yl}phenyl)oxy]-1-methylethyl dihydrogen phosphate]"
19,≥ 7.00,"Cc1cc(CCC(=O)O)c(Cl)cc1-c1nc(-c2cn3cc(C(F)(F)F)cc(Cl)c3n2)no1 [Example 329, 3-(2-chloro-4-{3-[8-chloro-6-(trifluoromethyl)imidazo[1,2-a]pyridin-2-yl]-1,2,4-oxadiazol-5-yl}-5-methylphenyl)propanoic acid]"
